From US20240150293A1, “SPIROCYCLOHEXANE DERIVATIVES, PHARMACEUTICAL COMPOSITIONS CONTAINING THEM AND THEIR USES AS ANTI-APOPTOTIC INHIBITORS” (LES LABORATOIRES SERVIER, priority 2021, published 2024)

Each compound was assayed against Mcl-1 protein (UniProtKB Q07820) (Homo sapiens (Human), UniProt Q07820) (assay: Inhibition of Mcl-1 by the fluorescence polarisation assay (Example A, Method A)). Details: fluorescence polarization assay.
Assay type: binding
Method in brief: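 Protein (5 nM) and fluorescein-tagged peptide tracer (1 nM) incubated with 11-point compound series for 2 h at room temperature in HEPES/NaCl/Tween 20 buffer, pH 7.4, 5% DMSO. Displacement read as decrease in polarisation; IC50 fitted by 4-parameter logistic, converted to Ki (cKi or eKi).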

Sequence of Mcl-1 protein (Q07820 whole entry): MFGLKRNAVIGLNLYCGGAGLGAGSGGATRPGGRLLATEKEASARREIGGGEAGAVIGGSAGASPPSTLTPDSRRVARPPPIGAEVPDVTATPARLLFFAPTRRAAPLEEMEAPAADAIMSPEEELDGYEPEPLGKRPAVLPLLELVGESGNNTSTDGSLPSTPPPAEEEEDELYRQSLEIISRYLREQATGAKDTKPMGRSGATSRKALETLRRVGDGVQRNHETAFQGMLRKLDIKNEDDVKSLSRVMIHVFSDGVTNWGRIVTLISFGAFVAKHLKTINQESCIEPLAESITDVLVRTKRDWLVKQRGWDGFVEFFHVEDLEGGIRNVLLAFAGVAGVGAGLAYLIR

Row | SMILES | Ki [µM]
1 | COc1cccc(N2Cc3ccccc3[C@]23CC[C@](Nc2cccc(Br)c2)(C(=O)O)CC3)c1 [Example 31, (1r,4r)-4-(3-bromoanilino)-2′-(3-methoxyphenyl)-2′,3′-dihydrospiro[cyclohexane-1,1′-isoindole]-4-carboxylic acid] | 36.3
2 | COc1cccc(N2Cc3ccccc3[C@]23CC[C@@](Nc2cccc(Br)c2)(C(=O)O)CC3)c1 [Example 32, (1s,4s)-4-(3-bromoanilino)-2′-(3-methoxyphenyl)-2′,3′-dihydrospiro[cyclohexane-1,1′-isoindole]-4-carboxylic acid] | 3.21
3 | COc1ccc(N2C(=O)c3ccccc3[C@]23CC[C@@](Nc2cccc(Br)c2)(C(=O)O)CC3)cc1 [Example 33, (1s,4s)-4-(3-bromoanilino)-2′-(4-methoxyphenyl)-3′-oxo-2′,3′-dihydrospiro[cyclohexane-1,1′-isoindole]-4-carboxylic acid] | 12.1
4 | Cc1cnccc1OCCCN1Cc2ccccc2[C@]12CC[C@@](Nc1cccc(Cl)c1)(C(=O)O)CC2 [Example 37, (1s,4s)-4-(3-chloroanilino)-2′-{3-[(3-methylpyridin-4-yl)oxy]propyl}-2′,3′-dihydrospiro[cyclohexane-1,1′-isoindole]-4-carboxylic acid] | 0.295
5 | O=C(O)[C@]1(Nc2cccc(Cl)c2)CC[C@@]2(C=Cc3ccccc32)CC1 [Example 64, (1r,4r)-4-(3-chloroanilino)spiro[cyclohexane-1,1′-indene]-4-carboxylic acid] | 0.735
6 | O=C(O)[C@]1(Nc2cccc(Cl)c2)CC[C@]2(C=Cc3ccccc32)CC1 [Example 65, (1s,4s)-4-(3-chloroanilino)spiro[cyclohexane-1,1′-indene]-4-carboxylic acid] | 4.99
7 | C=CCOc1ccc2c(c1)[C@]1(CC2)CC[C@](Nc2cccc(Br)c2)(C(=O)O)CC1 [Example 68, (1r,4s)-4-(3-bromoanilino)-6′-[(prop-2-en-1-yl)oxy]-2′,3′-dihydrospiro[cyclohexane-1,1′-indene]-4-carboxylic acid] | 0.302
8 | O=C(O)[C@]1(Nc2cccc(Cl)c2)CC[C@@]2(CCc3ccccc32)CC1 [Example 69, (1r,4s)-4-(3-chloroanilino)-2′,3′-dihydrospiro[cyclohexane-1,1′-indene]-4-carboxylic acid] | 0.706
9 | O=C(O)[C@]1(Nc2cccc(Cl)c2)CC[C@@]2(C=Cc3ncccc32)CC1 [Example 70, (1r,4r)-4-(3-chloroanilino)spiro[cyclohexane-1,5′-cyclopenta[b]pyridine]-4-carboxylic acid] | 25.9
10 | CN(c1cccc(Cl)c1)[C@]1(C(=O)O)CC[C@]2(C=Cc3ccccc32)CC1 [Example 73, (1r,4r)-4-[(3-chlorophenyl)(methyl)amino]spiro[cyclohexane-1,1′-indene]-4-carboxylic acid] | 60.5
11 | O=C(O)[C@]1(Nc2cccc(Cl)c2)CC[C@]2(CC1)C(I)=Cc1ccccc12 [Example 76, (1s,4s)-4-(3-chloroanilino)-2′-iodospiro[cyclohexane-1,1′-indene]-4-carboxylic acid] | 0.284
12 | O=C(O)[C@]1(Nc2cncc(Br)c2)CC[C@]2(CC1)C(Br)=Cc1ccccc12 [Example 79, (1s,4s)-2′-bromo-4-[(5-bromopyridin-3-yl)amino]spiro[cyclohexane-1,1′-indene]-4-carboxylic acid] | 0.571
13 | COCCOc1cccc(N[C@]2(C(=O)O)CC[C@@]3(CC2)C(Br)=Cc2ccccc23)n1 [Example 80, (1s,4s)-2′-bromo-4-{[6-(2-methoxyethoxy)pyridin-2-yl]amino}spiro[cyclohexane-1,1′-indene]-4-carboxylic acid] | 11.8
14 | COCCOc1cc(N[C@]2(C(=O)O)CC[C@@]3(CC2)C(Br)=Cc2ccccc23)ccn1 [Example 81, (1s,4s)-2′-bromo-4-{[2-(2-methoxyethoxy)pyridin-4-yl]amino}spiro[cyclohexane-1,1′-indene]-4-carboxylic acid] | 15.5
15 | O=C(O)[C@]1(Nc2cccc(C(F)F)c2)CC[C@]2(CC1)C(Br)=Cc1ccccc12 [Example 83, (1s,4s)-2′-bromo-4-[3-(difluoromethyl)anilino]spiro[cyclohexane-1,1′-indene]-4-carboxylic acid] | 1.36
16 | O=C(O)[C@]1(Nc2cccnc2)CC[C@]2(CC1)C(Br)=Cc1ccccc12 [Example 87, (1s,4s)-2′-bromo-4-[(pyridin-3-yl)amino]spiro[cyclohexane-1,1′-indene]-4-carboxylic acid] | 4.38
17 | COc1ccc2c(c1)[C@]1(CC[C@@](Nc3cccc(Cl)c3)(C(=O)O)CC1)C1(CCCC1)C2 [Example 89, (1r,4r)-4-(3-chloroanilino)-6′-methoxy-3′H-dispiro[cyclohexane-1,1′-indene-2′,1″-cyclopentane]-4-carboxylic acid] | 2.12
18 | O=C(O)[C@]1(Nc2cccc(Cl)c2)CC[C@]2(CC1)C(C1CC1)=Cc1ccccc12 [Example 90, (1r,4r)-4-(3-chloroanilino)-2′-cyclopropylspiro[cyclohexane-1,1′-indene]-4-carboxylic acid] | 2.15

Further lines, results first:

Row | Ki [µM] | SMILES
19 | 31.9 | C#Cc1ccc2c(c1)[C@]1(CC[C@](Nc3cccc(Br)c3)(C(=O)O)CC1)C(=O)N2C [Example 18, (1r,4r)-4-(3-bromoanilino)-5′-ethynyl-1′-methyl-2′-oxo-1′,2′-dihydrospiro[cyclohexane-1,3′-indole]-4-carboxylic acid]
20 | 21.1 | CN1c2ccc(/C=C/Cc3ccccc3)cc2[C@]2(CC[C@](Nc3cccc(Br)c3)(C(=O)O)CC2)C1=O [Example 19, (1r,4r)-4-(3-bromoanilino)-1′-methyl-2′-oxo-5′-[(1E)-3-phenylprop-1-en-1-yl]-1′,2′-dihydrospiro[cyclohexane-1,3′-indole]-4-carboxylic acid]
21 | 25.7 | Cc1cc(Br)cc2c1N(C)C(=O)[C@]21CC[C@@](Nc2cccc(Br)c2)(C(=O)O)CC1 [Example 20, (1r,4r)-5′-bromo-4-(3-bromoanilino)-1′,7′-dimethyl-2′-oxo-1′,2′-dihydrospiro[cyclohexane-1,3′-indole]-4-carboxylic acid]
22 | 24.1 | CC1=Nc2ccccc2[C@]12CC[C@](Nc1cccc(Br)c1)(C(=O)O)CC2 [Example 22, (1r,4r)-4-(3-bromoanilino)-2′-methylspiro[cyclohexane-1,3′-indole]-4-carboxylic acid]
23 | 1.08 | CC1N(C)c2ccccc2[C@]12CC[C@](Nc1cccc(Br)c1)(C(=O)O)CC2 (some centres unmarked) [Example 23, (1r,4r)-4-(3-bromoanilino)-1′,2′-dimethyl-1′,2′-dihydrospiro[cyclohexane-1,3′-indole]-4-carboxylic acid]
24 | 19.9 | CC1N(C)c2ccccc2[C@]12CC[C@@](Nc1cccc(Br)c1)(C(=O)O)CC2 (some centres unmarked) [Example 24, (1s,4s)-4-(3-bromoanilino)-1′,2′-dimethyl-1′,2′-dihydrospiro[cyclohexane-1,3′-indole]-4-carboxylic acid]
25 | 42.8 | CC1N(C=O)c2ccccc2[C@]12CC[C@](Nc1cccc(Br)c1)(C(=O)O)CC2 (some centres unmarked) [Example 26, (1r,4r)-4-(3-bromoanilino)-1′-formyl-2′-methyl-1′,2′-dihydrospiro[cyclohexane-1,3′-indole]-4-carboxylic acid]
26 | 36.3 | CC1=Nc2ccc(Br)cc2[C@]12CC[C@](Nc1cccc(Br)c1)(C(=O)O)CC2 [Example 27, (1r,4r)-5′-bromo-4-(3-bromoanilino)-2′-methylspiro[cyclohexane-1,3′-indole]-4-carboxylic acid]
27 | 9.25 | COc1cccc(N2C(=O)c3ccccc3[C@]23CC[C@@](Nc2cccc(Br)c2)(C(=O)O)CC3)c1 [Example 30, (1s,4s)-4-(3-bromoanilino)-2′-(3-methoxyphenyl)-3′-oxo-2′,3′-dihydrospiro[cyclohexane-1,1′-isoindole]-4-carboxylic acid]
28 | 43.5 | COc1ccc2c(c1)[C@]1(CC2)CC[C@@](Nc2cccc(Br)c2)(C(=O)O)CC1 [Example 62, (1s,4r)-4-(3-bromoanilino)-6′-methoxy-2′,3′-dihydrospiro[cyclohexane-1,1′-indene]-4-carboxylic acid]
29 | 0.24 | O=C(O)[C@]1(Nc2cccc(Br)c2)CC[C@@]2(CCc3ccc(O)cc32)CC1 [Example 63, (1r,4s)-4-(3-bromoanilino)-6′-hydroxy-2′,3′-dihydrospiro[cyclohexane-1,1′-indene]-4-carboxylic acid]
30 | 0.101 | COCCOc1ccc2c(c1)[C@]1(CC2)CC[C@](Nc2cccc(Br)c2)(C(=O)O)CC1 [Example 67, (1r,4s)-4-(3-bromoanilino)-6′-(2-methoxyethoxy)-2′,3′-dihydrospiro[cyclohexane-1,1′-indene]-4-carboxylic acid]
31 | 23.1 | O=C(O)[C@]1(Nc2cccc(Cl)c2)CC[C@@]2(CC1)C(Br)=Cc1ccccc12 [Example 74, (1r,4r)-2′-bromo-4-(3-chloroanilino)spiro[cyclohexane-1,1′-indene]-4-carboxylic acid]
32 | 0.227 | O=C(O)[C@]1(Nc2cccc(Br)c2)CC[C@]2(CC1)C(I)=Cc1ccccc12 [Example 77, (1s,4s)-4-(3-bromoanilino)-2′-iodospiro[cyclohexane-1,1′-indene]-4-carboxylic acid]
33 | 0.0876 | O=C(O)[C@]1(Nc2cccc(Br)c2)CC[C@]2(CC1)C(Br)=Cc1ccccc12 [Example 78, (1s,4s)-2′-bromo-4-(3-bromoanilino)spiro[cyclohexane-1,1′-indene]-4-carboxylic acid]
34 | 7.22 | O=C(O)[C@]1(Nc2cccc(O)c2)CC[C@]2(CC1)C(Br)=Cc1ccccc12 [Example 84, (1s,4s)-2′-bromo-4-(3-hydroxyanilino)spiro[cyclohexane-1,1′-indene]-4-carboxylic acid]
35 | 4.1 | COc1cccc(N[C@]2(C(=O)O)CC[C@@]3(CC2)C(Br)=Cc2ccccc23)c1 [Example 86, (1s,4s)-2′-bromo-4-(3-methoxyanilino)spiro[cyclohexane-1,1′-indene]-4-carboxylic acid]
